Test results as given in patent US10093694B2, “Compounds for treating eye disorders or diseases” (Guangzhou KangRui Biological Pharmaceutical Technology Co, …, priority 2016, dated 2018).

What was measured:
mouse eyes (cataract) = assay: Cataract studies: mouse eyes treated with eye drop solution; type: in vivo; conditions: eye drop solution 100 μM, three times a day, 50 μl each time, 6 weeks, versus negative control
Protocol: FIGS. 16A and 16B show the result of mouse eyes treated with an eye drop solution containing Compound 1 at 100 μM concentration three times a day for 50 μl each time for 6 weeks.

mouse lenses (cataract) = assay: Cataract studies: dissected mouse cataract lenses incubated with compound, scored for clarity; conditions: incubated with compound at the indicated concentrations for 4 hours at room temperature, PBS negative control showed no lens opacity change
Protocol: (§1) FIGS. 14A and 14B show cataract lenses that have been treated with Compound 1. FIG. 14A show mouse lenses (white) that were dissected from the eye and placed into phosphate buffered saline solution (PBS) overnight at 4° C. Cataract was visible in all lenses. The cataract lenses were incubated with Compound 1 at the indicated concentration for 4 hours at room temperature and then scored for clarity. […] The PBS solution served as negative control and there were no lens opacity change.
as §1, with “15A” for “14A”, “15B” for “14B”, “2.” for “1.”, “2” for “1”

| SMILES | clarity / cataract of treated eye (mouse eyes (cataract)) | lens clarity / cataract after treatment (mouse lenses (cataract)) |
| --- | --- | --- |
| C[C@H](CCC(Br)C(C)(C)O)[C@H]1CC[C@@]2(C)C3=C(CC[C@]12C)[C@@]1(C)CC[C@H](O)C(C)(C)[C@@H]1CC3 (stereo partly drawn) [Compound 1, (3S,5R,10S,13R,14R,17R)-17-((2R)-5-bromo-6-hydroxy-6-methylheptan-2-yl)-4,4,10,13,14-pentamethyl-2,3,4,5,6,7,10,11,12,13,14,15,16,17-tetradecahydro-1H-cyclopenta[a]phenanthren-3-ol] | increased clarity and reduced cataract | Increased lens clarity and reduced cataract |
| C[C@H](CCCC(C)(C)O)[C@H]1CC[C@@]2(C)C3=C(CC[C@]12C)[C@@]1(C)CC[C@H](O)C(C)(C)[C@@H]1CC3 [Compound 2, (3S,5R,10S,13R,14R,17R)-17-((R)-6-hydroxy-6-methylheptan-2-yl)-4,4,10,13,14-pentamethyl-2,3,4,5,6,7,10,11,12,13,14,15,16,17-tetradecahydro-1H-cyclopenta[a]phenanthren-3-ol] |  | Increased lens clarity and reduced cataract |
